Where “and” joins values, the source holds several entries; their conditions need not be identical. Identical values can stand only once. Like-named read-outs stand apart in the source and are kept apart here.
Assays:
[1] = system: phagocytosis by peritoneal macrophages of mice; assay type: cell-based; details: for % phagocytosis with respect to controls (= 100%): 80 min
leucocytes from rats [2] = assay type: in vivo, Sprague Dawley SIV 50 he-rats; details: 2 mg/kg oral
[3] = system: Sprague Dawley SIV 50 rat; assay type: in vivo, male and female Sprague Dawley SIV 50 rat
Text: The high toxicity of the new derivative of colchicine (N-desacetyl-N-adamantoyl-thiocolchicine) has been investigated through the oral way with the male and female Sprague Dawley SIV 50 rat having an average weight of 100 g.
Two experiments have been carried out. In the first one, only the high toxicity of the derivative has been studied; in the second one, the high toxicity of the derivative has been compared with that of colchicine.
The derivative and colchicine have been administered in suspension in propylene glycol through an oesophageal tube at the rate of 2 ml per rat for the first experiment and of 1 ml for the second one.
The animals have been observed for 10 days.

leucocytes from rats [4] = details: individual rat, 2 mg/kg oral, 2 mg/kg
leucocytes from rats [5] = details: individual rat, 2 mg/kg oral
leucocytes from rats [6] = details: 6 hours after administration, 2 mg/kg oral
in vitro = details: human, leucocytes, % of dead cells (Average of 2 determinations), no PHA
[7] = 6 hours after administration, 2 mg/kg

## COc1cc2c(c(OC)c1OC)-c1ccc(OC)c(=O)cc1[C@@H](NC(C)=O)CC2 [Colchicine, colchicine, reference compound]
[1]; 0.004 μg
  inhibition of phagocytosis: 15%
[1]; 0.004 μg, Experimentation III
  % phagocytosis with respect to controls (= 100%): 87.6%
[1]; 0.004 μg, Experimentation IV
  % phagocytosis with respect to controls (= 100%): 81.6%
[1]; 0.04 μg, Experimentation III
  % phagocytosis with respect to controls (= 100%): 65%
[1]; 0.04 μg, Experimentation IV
  % phagocytosis with respect to controls (= 100%): 78.9%
[1]; 0.04 μg, Experimentation V
  % phagocytosis with respect to controls (= 100%): 79.5%
[1]; 0.4 μg, Experimentation III
  % phagocytosis with respect to controls (= 100%): 44.7%
[1]; 0.4 μg, Experimentation IV
  % phagocytosis with respect to controls (= 100%): 54.3%
[1]; 0.4 μg, Experimentation V
  % phagocytosis with respect to controls (= 100%): 54.4%
[1]; 4 μg
  inhibition of phagocytosis: 65%
[1]; 4 μg, Experimentation II
  % phagocytosis with respect to controls (= 100%): 36.9%
[1]; 4 μg, Experimentation III
  % phagocytosis with respect to controls (= 100%): 34.5%
[1]; 4 μg, Experimentation IV
  % phagocytosis with respect to controls (= 100%): 32.2%
[1]; 4 μg, Experimentation V
  % phagocytosis with respect to controls (= 100%): 38.2%
[1]; 5 μg, Experimentation II
  % phagocytosis with respect to controls (= 100%): 30.3%
[1]; 10 μg, Experimentation II
  % phagocytosis with respect to controls (= 100%): 33.7%
[1]; 12.5 μg, Experimentation I
  % phagocytosis with respect to controls (= 100%): 36.5%
[1]; 20 μg, Experimentation II
  % phagocytosis with respect to controls (= 100%): 33.4%
[1]; 30 μg, Experimentation II
  % phagocytosis with respect to controls (= 100%): 36.2%
[1]; 40 μg
  inhibition of phagocytosis: 67%
[1]; 40 μg, Experimentation II
  % phagocytosis with respect to controls (= 100%): 32.0%
[1]; 40 μg, Experimentation III
  % phagocytosis with respect to controls (= 100%): 33.2%
[1]; 40 μg, Experimentation IV
  % phagocytosis with respect to controls (= 100%): 33.8%
Leucocytes from rats [2]; 6 hours after administration, group mean, factor and spread printed on following lines
  cpm / number of lymphocytes, mean: 2.72 × 10^-^2 cpm/number of lymphoc
Leucocytes from rats [2]; 6 hours after administration, individual rat, 2 mg/kg
  Number of lymphocytes/culture: 148,200 lymphocytes/culture and 108,240 lymphocytes/culture
Leucocytes from rats [2]; 6 hours after administration, individual rat, factor × 10^-^2, 2 mg/kg
  cpm / number of lymphocytes (immunity response): 5.03 × 10^-^2 cpm/number of lymphoc and 0.40 × 10^-^2 cpm/number of lymphoc
Leucocytes from rats [2]; before administration, individual rat, 2 mg/kg
  Number of lymphocytes/culture: 103,960 lymphocytes/culture and 163,400 lymphocytes/culture and 156,400 lymphocytes/culture
[3]; 100 mg/kg oral
  rats dead after 24 hours: 1 rat
  rats dead after 48 hours: 5 rats
[3]; 500 mg/kg oral
  rats dead after 24 hours: 5 rats
  rats dead after 48 hours: 1 rat
Human leucocytes; Table 9, 72 hours
  number of leucocytes with increasing amounts (in words): decreases with increasing amounts of colchicine
Human leucocytes; Table 9, C1 = 2.5 μg/ml, control 412,500
  Count of leucocytes after 72 hours: 457,000
Human leucocytes; Table 9, C3 = 10 μg/ml, control 412,500
  Count of leucocytes after 72 hours: 420,000
Human leucocytes; Table 9, C5 = 30 μg/ml, control 412,500
  Count of leucocytes after 72 hours: 397,000
Human leucocytes; Table 9, C6 = 50 μg/ml, control 412,500
  Count of leucocytes after 72 hours: 270,000
Human leucocytes; Table 11, Culture I, C3 = 10 μg/ml
  Count of leucocytes after 72 hours: 550,000
Human leucocytes; Table 11, Culture I, C6 = 50 μg/ml
  Count of leucocytes after 72 hours: 610,000
Human leucocytes; Table 11, Culture II, C1 = 2.5 μg/ml
  Count of leucocytes after 72 hours: 240,000
Human leucocytes; Table 11, Culture II, C3 = 10 μg/ml
  Count of leucocytes after 72 hours: 295,000
Human leucocytes; Table 11, Culture II, C5 = 30 μg/ml
  Count of leucocytes after 72 hours: 205,000
Human leucocytes; Table 11, Culture II, C6 = 50 μg/ml (two values given)
  Count of leucocytes after 72 hours: 225,000 and 330,000
Human leucocytes; Table 11, very approximative
  number of leucocytes in absence or presence of substance (in words): remain substantially the same
Leucocytes from rats [4]; experiment 1, 6 hours after administration
  Leucocytes / mm^3: 9,500 / mm^3 and 7,900 / mm^3 and 7,750 / mm^3
Leucocytes from rats [4]; experiment 1, before administration
  Leucocytes / mm^3: 16,600 / mm^3 and 10,450 / mm^3 and 10,000 / mm^3
Leucocytes from rats [4]; experiment 2, 6 hours after administration
  Leucocytes / mm^3: 7,950 / mm^3 and 6,950 / mm^3 and 8,900 / mm^3
Leucocytes from rats [4]; experiment 2, before administration
  Leucocytes / mm^3: 9,000 / mm^3 and 7,050 / mm^3 and 9,950 / mm^3
Leucocytes from rats [4]; experiment 3, 6 hours after administration
  Leucocytes / mm^3: 9,750 / mm^3 and 13,750 / mm^3
Leucocytes from rats [4]; experiment 3, before administration
  Leucocytes / mm^3: 10,750 / mm^3 and 8,500 / mm^3 and 15,250 / mm^3
Leucocytes from rats [5]; 6 hours after administration
  Basophils: 0
  Eosinophils: 0
Leucocytes from rats [5]; [7]
  Lymphocytes: 92 and 81 and 84
  Neutrophils with non-segmented nucleus: 1 and 3
  Neutrophils with segmented nucleus: 6 and 16 and 17
Leucocytes from rats [5]; before administration
  Basophils: 0
  Monocytes: 2
Leucocytes from rats [5]; before administration, 2 mg/kg
  Lymphocytes: 94 and 83 and 87
Leucocytes from rats [6]
  cytotoxic effect (in words): no cytotoxic effect has been noticed
Leucocytes from rats [6]; individual rat, 2 mg/kg, 360 min
  % of dead cells: 1% and 2% and 0%
In vitro; C1 = 0.01 μg/ml
  cytotoxicity at 6 h: 1%
  cytotoxicity at 30 h: 55%
  cytotoxicity at 48 h: 93%
In vitro; C2 = 0.1 μg/ml
  cytotoxicity at 6 h: 0%
  cytotoxicity at 30 h: 68%
  cytotoxicity at 48 h: 93%
In vitro; C3 = 0.5 μg/ml
  cytotoxicity at 6 h: 2%
  cytotoxicity at 30 h: 54%
  cytotoxicity at 48 h: 91%
In vitro; C4 = 1.0 μg/ml
  cytotoxicity at 6 h: 1%
  cytotoxicity at 30 h: 59%
  cytotoxicity at 48 h: 95%
In vitro; C5 = 2.5 μg/ml
  cytotoxicity at 6 h: 1%
  cytotoxicity at 30 h: 60%
  cytotoxicity at 48 h: 92%
In vitro; C6 = 10.0 μg/ml
  cytotoxicity at 6 h: 1%
  cytotoxicity at 30 h: 46%
  cytotoxicity at 48 h: 92%

From patent US3997506A (priority 1974, dated 1976)
